According to patent US9091692B2, “Fluorescent dye” (SHINICHIRO ISOBE, priority 2011, dated 2015):

Assay: Measurement of a fluorescence spectrum (absorption and fluorescent wavelength, fluorescence intensity)
Type: physicochemical
Settings: dissolved in DMSO, concentration 10^-4 M
Procedure: Measurement of a Fluorescence Spectrum
Each of the synthesized fluorescent dyes was dissolved in a solvent by using DMSO to prepare a solution having a concentration of 10^−4 M, so that the measurements of fluorescent wavelength and absorption wavelength were performed.

Molecule | Absorption wavelength | Fluorescence wavelength | Stokes shift
O=C(CCCCC[n+]1cccc(/C=C/c2nc(-c3ccccc3)c3nsnc3c2-c2ccccc2)c1)ON1C(=O)CCC1=O [Synthetic Example 1] | 411 nm | 531 nm | 120 nm
COc1ccc(-c2nc(/C=C/c3ccc[n+](CCCCCC(=O)ON4C(=O)CCC4=O)c3)c(-c3ccc(OC)cc3)c3nonc23)cc1 [Synthetic Example 2] | 437 nm | 608 nm | 171 nm
Cc1csc(-c2c(-c3ccc[n+](CCC(=O)ON4C(=O)CCC4=O)c3)nc(-c3ccc(C)s3)c3nonc23)c1 [Synthetic Example 10] | 531 nm | 650 nm | 119 nm
Cc1csc(-c2c(-c3cc[n+](CCCCCC(=O)ON4C(=O)CCC4=O)cc3)nc(-c3ccc(C)s3)c3nonc23)c1 [Synthetic Example 11, active ester of 4,7-di(methylthienyl)-1,2,5-oxadiazolopyridine-6-(4-pyridinium)] | 528 nm | 648 nm | 120 nm
O=C(CCCCC[n+]1cccc(-c2nc(-c3ccccc3)c3nonc3c2-c2ccccc2)c1)ON1C(=O)CCC1=O [Synthetic Example 12] | 382 nm | 513 nm | 131 nm
O=C(CCCCC[n+]1ccc(-c2nc(-c3ccc(-c4ccc5ccccc5c4)s3)c3nonc3c2-c2cc(-c3ccc4ccccc4c3)cs2)cc1)ON1C(=O)CCC1=O [Synthetic Example 16, active ester of 4,7-di[(2-naphthyl)thienyl]-1,2,5-oxadiazolopyridine-6-(4-pyridinium)] | 516 nm | 682 nm | 166 nm
O=C(CCCCC[n+]1ccc(/C=C/c2nc(-c3ccc(-c4cccc5ccccc45)s3)c3nonc3c2-c2ccc(-c3cccc4ccccc34)s2)cc1)ON1C(=O)CCC1=O [Synthetic Example 18, active ester of 4,7-di[(1-naphthyl)thienyl]-1,2,5-oxadiazolopyridine-6-(4-vinylpyridinium)] | 535 nm | 700 nm | 165 nm
O=C(CCCCC[n+]1ccc(-c2nc(-c3ccc(-c4ccc(-c5ccccc5)cc4)s3)c3nonc3c2-c2cc(-c3ccc(-c4ccccc4)cc3)cs2)cc1)ON1C(=O)CCC1=O.[Br-] [Synthetic Example 20, active ester of 4,7-di[(2-biphenyl)thienyl]-1,2,5-oxadiazolopyridine-6-(4-pyridinium)] | 529 nm | 715 nm | 186 nm
active ester of 4,7-di(bromothienyl)-1,2,5-oxadiazolopyridine-6-(4-pyridine) [Synthetic Example 13] | 516 nm | 698 nm | 182 nm
active ester of 4,7-di(methylthienyl)-1,2,5-oxadiazolopyridine-6-(3-pyridinium) [Synthetic Example 9] | 539 nm | 660 nm | 121 nm
active ester of 4,7-di[(1-naphthyl)thienyl]-1,2,5-oxadiazolopyridine-6-(4-pyridinium) [Synthetic Example 15] | 532 nm | 722 nm | 190 nm
active ester of 4,7-di[(2-biphenyl)thienyl]-1,2,5-oxadiazolopyridine-6-(4-vinylpyridinium) [Synthetic Example 21] | 404 nm | 527 nm | 123 nm
active ester of 4,7-di[(2-bromo)thienyl]-1,2,5-oxadiazolopyridine-6-(4-vinylpyridinium) [Synthetic Example 17] | 509 nm | 688 nm | 179 nm
active ester of 4,7-di[(2-naphthyl)thienyl]-1,2,5-oxadiazolopyridine-6-(4-vinylpyridinium) [Synthetic Example 19] | 533 nm | 730 nm | 197 nm
active ester of 4,7-di[(2-phenyl)thienyl]-1,2,5-oxadiazolopyridine-6-(4-pyridinium) [Synthetic Example 14] | 500 nm | 710 nm | 210 nm

Same assay, conditions: fluorescence intensity of Synthetic Example 22 was 1.0

Molecule | Fluorescence intensity relative to Synthetic Example 22
O=C(CCCCC[n+]1cccc(/C=C/c2nc(-c3ccccc3)c3nsnc3c2-c2ccccc2)c1)ON1C(=O)CCC1=O [Synthetic Example 1] | 11.2
O=C(CCCCC[n+]1cccc(-c2nc(-c3ccccc3)c3nonc3c2-c2ccccc2)c1)ON1C(=O)CCC1=O [Synthetic Example 12] | 6.0
active ester of 4,7-diphenyl-1,2,5-oxadiazolopyridine ethyl ester [Synthetic Example 22, reference compound] | 1.0

Assay: Direct solubility of the fluorescent dye in water
Type: physicochemical
Settings: not given
Source text: The fluorescent dyes obtained in Synthetic Examples 1 to 21 were each directly soluble in water. […] A stokes shift of 100 nm or more was obtained in all the synthesized fluorescent dyes. An absorption wavelength of 400 to 450 nm was obtained in the 4,7-diphenyl whereas an absorption wavelength of 500 nm or more and a fluorescence wavelength of 600 nm or more were obtained in the 4,7-thienyl. When the fluorescence intensity of Synthetic Example 22 was 1.0, a very high fluorescence intensity as much as 11.2 was obtained in Synthetic Example 1 and a very high fluorescence intensity as much as 6.0 was obtained in Synthetic Example 12.

Molecule | Direct solubility in water
active ester of 4,7-diphenyl-1,2,5-oxadiazolopyridine ethyl ester [Synthetic Example 22, reference compound] | could not be directly dissolved in water
